{
  "source": "patent EP0323416A2",
  "about": "“Phenylbenzylidene derivatives of 3-aminopropanesulfonic acid having anticonvulsant activity and pharmaceutical compositions containing same for the therapeutical treatment of epilepsy” (Sigma-Tau Industrie Farmaceutiche Riunite S.p.A., priority 1987, dated 1989)",
  "key": {"[1]": {"tested_on": "cardiazol-induced convulsions", "assay": "Cardiazol-induced convulsions test in mice", "format": "in vivo, male albino Swiss (Charles River) mice", "protocol": "(§1) The doses of cardiazol, strychinine, bicuculline and picrotoxin (100 mg/10 ml/kg i.p., 0.73 mg/10 ml/kg s.c., 2.38 mg/10 ml/kg s.c. and 4.42 mg/10 ml/kg s.c. respectively) were chosen in such a way as to provoke death of 50% of the control animals.\n(§2) The tests were carried out in male albino Swiss (Charles River) mice weighing 22-24 g which had been kept fasting for 18 hours.\n(§3) 100/0 gum arabic suspensions of the compounds under examination were orally administered 60 minutes before the convulsant agent administration.\n(§4) As reference substance, 3-APS (200-400-800 mg/10 ml/kg i.p.) was used."}, "[2]": {"tested_on": "bicuculline-induced convulsions", "assay": "Bicuculline-induced convulsions test in mice", "format": "in vivo, male albino Swiss (Charles River) mice", "protocol": "as §1, §2, §3, §4"}, "[3]": {"tested_on": "strychnine-induced convulsions", "assay": "Strychnine-induced convulsions test in mice", "format": "in vivo, male albino Swiss (Charles River) mice", "protocol": "as §1, §2, §3, §4"}, "[4]": {"tested_on": "picrotoxin-induced convulsions", "assay": "Picrotoxin-induced convulsions test in mice", "format": "in vivo, male albino Swiss (Charles River) mice", "protocol": "as §1, §2, §3, §4"}, "auricular electroshock": {"tested_on": "auricular electroshock", "assay": "Auricular electroshock (maximal electroshock death)", "format": "in vivo, Male albino Swiss mice", "details": "oral in gum arabic 60 minutes before the electroshock, 10 mice", "protocol": "Male albino Swiss mice weighing 22-24 g were used in this test. The electroshock conditions were the shock duration: 3 seconds; frequence: 100; pulse amplitude: 0.6 milliseconds, current intensity: 40 milliamperes. The compounds ST 505 and ST 512 suspended in gum arabic were orally administered 60 minutes before the electroshock.\nThe tests results which illustrate the number of animal preserved from death provoked by maximal electroshock are shown in the following Table 4."}, "male albino Swiss mice": {"tested_on": "male albino Swiss mice", "assay": "Tolerability test, oral", "format": "in vivo", "details": "suspension in 10% gum arabic, dose of 3 g/kg, mice fasting for 18 hours", "protocol": "The tolerability test was carried out on male albino Swiss mice weighing 22-24 g. The animals, which had been kept fasting for 18 hours, were orally administered a suspension in 10% gum arabic of the compounds ST 505 and ST 512."}, "[5]": {"details": "200, 400 and 800 mg/10 ml/kg i.p., mice"}, "[6]": {"details": "400 mg/10 ml/kg i.p., mice, versus control"}, "[7]": {"details": "oral, 100 mg/kg eq. 3 APS, 60 minutes before convulsant, mice (Table 2)"}, "[8]": {"details": "oral, 200 mg/kg eq. 3 APS, 60 minutes before convulsant, mice (Table 2)"}},
  "note": "Marks after values point to notes of the source that are not given here.",
  "data": [
    {"smiles": "NCCCS(=O)(=O)O", "note": "[3-APS, 3-aminopropanesulfonic acid]", "values": [
      {"measurement": "Cardiazol % Death rate", "setting": "[1]; 200 mg/kg i.p., mice", "value": 50, "unit": "%"},
      {"measurement": "Cardiazol Strong % Conv.", "setting": "[1]; 200 mg/kg i.p., mice", "value": 100, "unit": "%"},
      {"measurement": "Cardiazol % Death rate", "setting": "[1]; 400 mg/kg i.p., mice", "value": 90, "unit": "%"},
      {"measurement": "Cardiazol Strong % Conv.", "setting": "[1]; 400 mg/kg i.p., mice", "value": 100, "unit": "%"},
      {"measurement": "Cardiazol % Death rate", "setting": "[1]; 800 mg/kg i.p., mice", "value": 60, "unit": "%"},
      {"measurement": "Cardiazol Strong % Conv.", "setting": "[1]; 800 mg/kg i.p., mice", "value": 100, "unit": "%"},
      {"measurement": "cardiazol-induced death", "setting": "[1]; [5]", "value": "did not preserve animals"},
      {"measurement": "Bicuculline % Death rate", "setting": "[2]; 200 mg/kg i.p., mice", "value": 100, "unit": "%"},
      {"measurement": "Bicuculline Strong % Conv.", "setting": "[2]; 200 mg/kg i.p., mice", "value": 100, "unit": "%"},
      {"measurement": "latency time of bicuculline-induced death", "setting": "[2]; [6]", "value": "significantly increased"},
      {"measurement": "Bicuculline % Death rate", "setting": "[2]; 400 mg/kg i.p., mice", "value": 75, "unit": "%"},
      {"measurement": "Bicuculline Strong % Conv.", "setting": "[2]; 400 mg/kg i.p., mice, 8 animals per group", "value": "100* %"},
      {"measurement": "Bicuculline % Death rate", "setting": "[2]; 800 mg/kg i.p., mice", "value": 40, "unit": "%"},
      {"measurement": "Bicuculline Strong % Conv.", "setting": "[2]; 800 mg/kg i.p., mice", "value": 70, "unit": "%"},
      {"measurement": "bicuculline-induced first convulsion latency time", "setting": "[2]; 800 mg/kg i.p., mice, versus control", "value": "significantly increased"},
      {"measurement": "bicuculline-induced death", "setting": "[2]; [5]", "value": "did not preserve animals"},
      {"measurement": "Strychnine % Death rate", "setting": "[3]; 200 mg/kg i.p., mice", "value": 90, "unit": "%"},
      {"measurement": "Strychnine Strong % Conv.", "setting": "[3]; 200 mg/kg i.p., mice", "value": 100, "unit": "%"},
      {"measurement": "Strychnine % Death rate", "setting": "[3]; 400 mg/kg i.p., mice", "value": 100, "unit": "%"},
      {"measurement": "Strychnine Strong % Conv.", "setting": "[3]; 400 mg/kg i.p., mice", "value": 100, "unit": "%"},
      {"measurement": "Strychnine % Death rate", "setting": "[3]; 800 mg/kg i.p., mice", "value": 90, "unit": "%"},
      {"measurement": "Strychnine Strong % Conv.", "setting": "[3]; 800 mg/kg i.p., mice", "value": 100, "unit": "%"},
      {"measurement": "strychnine-induced death", "setting": "[3]; [5]", "value": "did not preserve animals"},
      {"measurement": "Picrotoxin % Death rate", "setting": "[4]; 200 mg/kg i.p., mice", "value": 20, "unit": "%"},
      {"measurement": "Picrotoxin Strong % Conv.", "setting": "[4]; 200 mg/kg i.p., mice", "value": 100, "unit": "%"},
      {"measurement": "picrotoxin-induced first convulsion latency time", "setting": "[4]; [6]", "value": "significantly increased"},
      {"measurement": "Picrotoxin % Death rate", "setting": "[4]; 400 mg/kg i.p., mice", "value": 30, "unit": "%"},
      {"measurement": "Picrotoxin Strong % Conv.", "setting": "[4]; 400 mg/kg i.p., mice", "value": 100, "unit": "%"},
      {"measurement": "Picrotoxin % Death rate", "setting": "[4]; 800 mg/kg i.p., mice", "value": 70, "unit": "%"},
      {"measurement": "Picrotoxin Strong % Conv.", "setting": "[4]; 800 mg/kg i.p., mice", "value": 30, "unit": "%"},
      {"measurement": "picrotoxin-induced death", "setting": "[4]; [5]", "value": "did not preserve animals"}
    ]},
    {"smiles": "NS(=O)(=O)CCCN=C(c1ccccc1)c1ccccc1O", "note": "[ST 512, 3-[(a-phenyl)-2-hydroxybenzylidene] amino propanesulfonamide]", "values": [
      {"measurement": "Cardiazol % Death rate", "setting": "[1]; [7]", "value": 50, "unit": "%"},
      {"measurement": "Cardiazol Strong % Conv.", "setting": "[1]; [7]", "value": 100, "unit": "%"},
      {"measurement": "Cardiazol % Death rate", "setting": "[1]; [8]", "value": 60, "unit": "%"},
      {"measurement": "Cardiazol Strong % Conv.", "setting": "[1]; [8]", "value": 100, "unit": "%"},
      {"measurement": "reduction of cardiazol-induced death rate", "setting": "[1]; oral, dose equimolar to 100 mg/10ml/kg of 3-APS, mice", "value": 20, "unit": "%"},
      {"measurement": "reduction of cardiazol-induced death rate", "setting": "[1]; oral, dose equimolar to 200 mg/10ml/kg of 3-APS, mice", "value": 10, "unit": "%"},
      {"measurement": "death rate", "setting": "auricular electroshock; dose 200 (unit not given)", "value": "3/10"},
      {"measurement": "death rate", "setting": "auricular electroshock; dose 400 (unit not given)", "value": "4/10"},
      {"measurement": "Bicuculline % Death rate", "setting": "[2]; [7]", "value": 100, "unit": "%"},
      {"measurement": "Bicuculline Strong % Conv.", "setting": "[2]; [7]", "value": 90, "unit": "%"},
      {"measurement": "Bicuculline % Death rate", "setting": "[2]; [8]", "value": 100, "unit": "%"},
      {"measurement": "Bicuculline Strong % Conv.", "setting": "[2]; [8]", "value": 100, "unit": "%"},
      {"measurement": "tolerability", "setting": "male albino Swiss mice", "value": "well tolerated"},
      {"measurement": "Strychnine % Death rate", "setting": "[3]; [7]", "value": 80, "unit": "%"},
      {"measurement": "Strychnine Strong % Conv.", "setting": "[3]; [7]", "value": 90, "unit": "%"},
      {"measurement": "Strychnine % Death rate", "setting": "[3]; [8]", "value": 90, "unit": "%"},
      {"measurement": "Strychnine Strong % Conv.", "setting": "[3]; [8]", "value": 80, "unit": "%"},
      {"measurement": "Picrotoxin % Death rate", "setting": "[4]; [7]", "value": 40, "unit": "%"},
      {"measurement": "Picrotoxin Strong % Conv.", "setting": "[4]; [7]", "value": 100, "unit": "%"},
      {"measurement": "Picrotoxin % Death rate", "setting": "[4]; [8]", "value": 50, "unit": "%"},
      {"measurement": "Picrotoxin Strong % Conv.", "setting": "[4]; [8]", "value": 100, "unit": "%"}
    ]}
  ]
}
